From patent US20260026504A1, “COMPOUND […] STRUCTURE, APPLICATION, AND INSECTICIDE” (Anhui Shengfeng Biochemical Co., Ltd, priority 2022, published 2026)
Read-outs that look alike come from different tables or passages of the source.

Test system: diamondback moth (Plutella xylostella) second instar larvae
Assay: Toxicity to diamondback moth larvae by the leaf-dipping method
Format: in vivo
Settings: corrected mortality grade, 1 ppm, cabbage leaf dip; for mortality at 1 ppm: Plutella xylostella, in Brassica oleracea, foliar
Method: Determining the toxicity activity of part of compounds on diamondback moth (Plutella xylostella) instar larvae by the leafdipping method.
The test agents of the compounds in Table 2 were weighed out accurately with an electronic analytical balance, and the original drug was dissolved in a 10000 ppm solution with dimethyl sulfoxide as the solvent and then diluted with 0.1% of Triton solution to 1 ppm and 0.25 ppm solutions. Taking the cabbage not contacted with the liquid medicine, and cutting the leaves into 6 cm-diameter circular leaves. Soaking the leaves in the prepared liquid medicine for 15 seconds, taking out and drying, and placing the leaves into 6 cm culture dishes, wherein 1 cabbage leaf is placed in each culture dish. The same standard second instar larvae were placed in petri dishes with 10 heads per dish and 4 replicates per concentration for a total of 40 heads. After inoculation, the culture dish is placed in a constant-temperature culture chamber with the temperature of 25±1° C. and the illumination period of 16 (D) to 8 (L) h, and the number of dead and live larvae is investigated after 48 h and 72 h. A blank and a control of compound K1 and compound K2 were also provided.
The mortality is calculated according to the following formula 1, then the corrected mortality is calculated according to the formula 2, and finally the classification is carried out according to the corrected mortality value and the rating standard shown in the table 2, and the specific results are shown in the tables 3 and 4.
mortality %=(number of dead insects/total number of insects)×100% Equation 1;
corrected mortality %=[(treatment-control mortality)/(1-control mortality)]×100% Equation 2.

[1] = 48 h, 48 h, read-out: mortality (1 ppm) 48 h
[2] = 72 h, 72 h, read-out: mortality (1 ppm) 72 h

SMILES: Cc1cc(C2=NOC(c3cc(Cl)cc(Cl)c3)(C(F)(F)F)C2)ccc1C(=O)Nc1cnn(S(=O)(=O)C2CCCCC2)c1 (centres unmarked) [Compound 75]
- mortality at 1 ppm [1]: 90 to 100%
- mortality at 1 ppm [2]: 90 to 100%

SMILES: Cc1cc(C2=NOC(c3cc(Cl)cc(Cl)c3)(C(F)(F)F)C2)ccc1C(=O)Nc1cnn(CC(F)(F)F)c1 (centres unmarked) [Compound 7]
- mortality at 1 ppm [2]: 80 to 90%

SMILES: Cc1cc(C2=NOC(c3cc(Cl)cc(Cl)c3)(C(F)(F)F)C2)ccc1C(=O)Nc1cnn(S(C)(=O)=O)c1 (centres unmarked) [Compound 69]
- mortality at 1 ppm [2]: 50 to 70%

SMILES: Cc1cc(C2=NOC(c3cc(Cl)c(F)c(Cl)c3)(C(F)(F)F)C2)ccc1C(=O)Nc1cnn(S(=O)(=O)C(C)C)c1 (centres unmarked) [Compound 154]
- mortality at 1 ppm [1]: 80 to 90%
- mortality at 1 ppm [2]: 100%

SMILES: Cc1cc(C2=NOC(c3cc(Cl)c(F)c(Cl)c3)(C(F)(F)F)C2)ccc1C(=O)Nc1cnn(S(C)(=O)=O)c1 (centres unmarked) [Compound 151]
- mortality at 1 ppm [2]: 70 to 80%

SMILES: CCCC(=O)n1nc(C)c(NC(=O)c2ccc(C3=NOC(c4cc(Cl)c(F)c(Cl)c4)(C(F)(F)F)C3)cc2C)c1C (centres unmarked) [Compound 170]
- mortality at 1 ppm [2]: 80 to 90%

SMILES: Cc1cc(C2=NOC(c3cc(Cl)cc(Cl)c3)(C(F)(F)F)C2)ccc1C(=O)Nc1cnn(CC2CC2)c1 (centres unmarked) [Compound 30]
- mortality at 1 ppm [2]: 50 to 70%

SMILES: Cc1cc(C2=NOC(c3cc(Cl)cc(Cl)c3)(C(F)(F)F)C2)ccc1C(=O)Nc1cnn(CC2CCCCC2)c1 (centres unmarked) [Compound 33]
- mortality at 1 ppm [2]: 50 to 70%

SMILES: CCn1cc(NC(=O)c2ccc(C3=NOC(c4cc(Cl)c(F)c(Cl)c4)(C(F)(F)F)C3)cc2C)cn1 (centres unmarked) [Compound 125]
- mortality at 1 ppm [1]: 100%
- mortality at 1 ppm [2]: 100%

SMILES: CC(=O)n1cc(NC(=O)c2ccc(C3=NOC(c4cc(Cl)c(F)c(Cl)c4)(C(F)(F)F)C3)cc2C)cn1 (centres unmarked) [Compound 140]
- mortality at 1 ppm [2]: 50 to 70%

SMILES: CCCn1cc(NC(=O)c2ccc(C3=NOC(c4cc(Cl)cc(Cl)c4)(C(F)(F)F)C3)cc2C)cn1 (centres unmarked) [Compound 4]
- mortality at 1 ppm [1]: 50 to 70%
- mortality at 1 ppm [2]: 50 to 70%

SMILES: Cc1cc(C2=NOC(c3cc(Cl)cc(Cl)c3)(C(F)(F)F)C2)ccc1C(=O)Nc1cn[nH]c1 (centres unmarked) [Compound 1]
- mortality at 1 ppm [1]: 50 to 70%
- mortality at 1 ppm [2]: 70 to 80%

SMILES: Cc1cc(C2=NOC(c3cc(Cl)c(F)c(Cl)c3)(C(F)(F)F)C2)ccc1C(=O)Nc1cnn(CC2CCC2)c1 (centres unmarked) [Compound 134]
- mortality at 1 ppm [2]: 70 to 80%

SMILES: Cc1cc(C2=NOC(c3cc(Cl)cc(Cl)c3)(C(F)(F)F)C2)ccc1C(=O)Nc1cnn(-c2ccccc2F)c1 (centres unmarked) [Compound 42]
- mortality at 1 ppm [2]: 50 to 70%

SMILES: Cc1cc(C2=NOC(c3cc(Cl)cc(Cl)c3)(C(F)(F)F)C2)ccc1C(=O)Nc1cnn(-c2ccc(F)cc2)c1 (centres unmarked) [Compound 52]
- mortality at 1 ppm [2]: 50 to 70%

SMILES: Cc1cc(C2=NOC(c3cc(Cl)c(F)c(Cl)c3)(C(F)(F)F)C2)ccc1C(=O)Nc1c(C)nn(C(C)C)c1C (centres unmarked) [Compound 162]
- mortality at 1 ppm [1]: 50 to 70%
- mortality at 1 ppm [2]: 100%

SMILES: CCCn1nc(C)c(NC(=O)c2ccc(C3=NOC(c4cc(Cl)c(F)c(Cl)c4)(C(F)(F)F)C3)cc2C)c1C (centres unmarked) [Compound 161]
- mortality at 1 ppm [2]: 90 to 100%

SMILES: Cc1cc(C2=NOC(c3cc(Cl)cc(Cl)c3)(C(F)(F)F)C2)ccc1C(=O)Nc1cnn(C(C)C)c1 (centres unmarked) [Compound 5]
- mortality at 1 ppm [1]: 90 to 100%
- mortality at 1 ppm [2]: 100%

SMILES: Cc1cc(C2=NOC(c3cc(Cl)cc(Cl)c3)(C(F)(F)F)C2)ccc1C(=O)Nc1cnn(C2CC2)c1 (centres unmarked) [Compound 23]
- mortality at 1 ppm [1]: 100%
- mortality at 1 ppm [2]: 100%

SMILES: Cc1cc(C2=NOC(c3cc(Cl)cc(Cl)c3)(C(F)(F)F)C2)ccc1C(=O)Nc1cnn(C2CCOC2)c1 (centres unmarked) [Compound 39]
- mortality at 1 ppm [2]: 50 to 70%

SMILES: Cc1cc(C2=NOC(c3cc(Cl)c(F)c(Cl)c3)(C(F)(F)F)C2)ccc1C(=O)Nc1cnn(S(=O)(=O)C2CCCCC2)c1 (centres unmarked) [Compound 157]
- mortality at 1 ppm [1]: 90 to 100%
- mortality at 1 ppm [2]: 100%

SMILES: Cc1cc(C2=NOC(c3cc(Cl)cc(Cl)c3)(C(F)(F)F)C2)ccc1C(=O)Nc1cnn(-c2ccccc2Br)c1 (centres unmarked) [Compound 44]
- mortality at 1 ppm [2]: 50 to 70%

SMILES: Cc1cc(C2=NOC(c3cc(Cl)c(F)c(Cl)c3)(C(F)(F)F)C2)ccc1C(=O)Nc1c(C)nn(C)c1C (centres unmarked) [Compound 159]
- mortality (1 ppm) 72 h (72 h): B (90% to less than 100%)
